Laboratory results published in publication PMC4409337, “Immucillins Impair Leishmania (L.) infantum chagasi and Leishmania (L.) amazonensis Multiplication In Vitro” (PLoS ONE, 2015).

Tests used:
[1] = system: L. (L.) infantum chagasi promastigotes; test: Promastigote multiplication in chemically defined RPMI medium; assay type: cell-based, Leishmania (L.) infantum chagasi
Description: Stock solutions (20 mM) of immucillins IA […] prepared using Milli-Q purified water. Log phase promastigotes of L. (L.) infantum chagasi and L. […] Promastigotes were recorded in a Neubauer chamber after 24, 48, 72 and 96 hours of incubation at 26°C. […] We also assayed the possibility of reversing the inhibitory effect of IA in RPMI medium by the addition of adenosine to the culture medium. The concentration of adenosine in Schneider s insect serum supplemented medium was assessed by HPLC using a C-18 reverse-phase column as described.

[2] = system: intracellular amastigotes of L. (L.) infantum chagasi; test: Replication of intracellular amastigotes in infected peritoneal macrophages (phagocytic index); assay type: cell-based, Leishmania (L.) infantum chagasi
Description: […] […] The amastigote growth was assessed 24 h after the last drug addition, on 200 cells in Giemsa stained coverslips and expressed as phagocytic index = percent of infected macrophages x average number of intracellular amastigotes. […] All experiments with mice were reviewed and approved by the Animal Care and Use Committee of the Instituto de Biofísica Carlos Chagas Fo.-UFRJ (CAUAP-CONCEA, Brazil, IMPPG-016) and were performed according to the guidelines of the National Institutes of Health, USA. We made all efforts in order to minimize animal suffering.

## Nc1ncnc2c(C3N[C@H](CO)[C@@H](O)[C@H]3O)c[nH]c12 (some centres unmarked) [IA]
[1]; Leishmania infantum, 10 μM, 72 h, compared to RPMI with no addition
  inhibition at 10 µM: 38%
[1]; Leishmania infantum, 50 μM, 72 h, compared to RPMI with no addition
  inhibition at 50 µM: 46%
[1]; Leishmania infantum, RPMI medium lacking nucleosides or nucleobases, 72 h
  IC50: 75 µM
[1]; RPMI with 50 μM IA and 50-500 μM adenosine, 72h
  reversal of growth inhibition by adenosine: can be reversed by the presence of exogenous adenosine
[2]; 10 μM added daily at 0, 24 and 48 h
  reduction in the number of intracellular amastigotes: 95%
[2]; Leishmania infantum, Peritoneal macrophage, drugs (0.5–10 μM) added at 0 h, incubation 24 h, linear interpolation, read-out: EC50 (CI 95%)
  EC50: 2.39 µM
[2]; low micromolar concentrations, single to daily protocol
  decrease of intracellular amastigote parasite load: 74–95%
[2]; single 10 μM dose at 0 h, compared to untreated controls
  reduction in the number of intracellular amastigotes: 74%
